From patent publication US9683231B2, “RNAi-based method of drug screening and characterization” (Massachusetts Institute of Technology, priority 2010, dated 2017) come the findings set out here.

Read-outs that look alike come from different tables or passages of the source. Starred links: 1 amine or outer side, 2 acyl side, 3 side chain; linkers in the order of their positions; H or OH if unused. Positions of bridges follow the written chain, without caps; N, C: chain ends. Non-standard residues stand in square brackets, D forms with d. Residues, ends and D or L forms follow the SMILES beside them. Chains are numbered I, II in the order given. Actinocin(9to1) = Cc1c2oc3c(C)ccc(C(=O)[*:1])c3nc-2c(C(=O)[*:2])c(N)c1=O; NMeV = CN[C@H](C(=O)O)C(C)C; Sar = CNCC(=O)O

This assay concerns Eμ-Mycp19^Arf−/− mouse lymphoma cells. The assay is described as follows: Drug treatment and FACS viability (propidium iodide) to determine LD80-90. Type of assay: cell-based.
Where [1] appears, read: concentration at which 80-90% of uninfected lymphoma cells were killed; lowest viability of 24, 48 and 72 h between 10% and 20%.
Setting [2] is: Mus musculus; concentration at which 80-90% of uninfected lymphoma cells were killed; lowest viability of 24, 48 and 72 h between 10% and 20%; read-out: Concentration used (LD80-90).
The mark [3] stands for this setting: read-out: Concentration used (LD80-90).
[4] abbreviates: Mus musculus; read-out: Concentration used (LD80-90).

With `COc1cc2c(cc1O)CC[C@@H]1[C@@H]2CC[C@]2(C)[C@@H](O)CC[C@@H]12` [2-Methoxyestradiol], the “Concentration used (LD80-90)” value under setting [1] is 1.8 µM.

Take `O=c1[nH]cc(F)c(=O)[nH]1` [5-Fluorouracil]: the IC (80-90) under setting [2] was found to be 0.0305 µM.

In the case of `Nc1nc2nc[nH]c2c(=S)[nH]1` [6-Thioguanine], the IC (80-90) under setting [2] stood at 0.054 µM.

As to `C=CCNC1=C2C[C@@H](C)C[C@H](OC)[C@H](O)[C@@H](C)/C=C(\C)[C@H](OC(N)=O)[C@@H](OC)/C=C\C=C(/C)C(=O)NC(=CC1=O)C2=O` [17 AAG], under setting [1], the “Concentration used (LD80-90)” value came out at 2.6 µM.

Regarding `COc1cc2ncnc(Nc3cccc(Cl)c3)c2cc1OC` [AG1478], under setting [1], the “Concentration used (LD80-90)” value came to 19 µM.

As to `Cc1c2oc3c(C)ccc(C(=O)N[C@@H]4C(=O)N[C@H](C(C)C)C(=O)N5CCC[C@H]5C(=O)N(C)CC(=O)N(C)[C@@H](C(C)C)C(=O)O[C@@H]4C)c3nc-2c(C(=O)N[C@@H]2C(=O)N[C@H](C(C)C)C(=O)N3CCC[C@H]3C(=O)N(C)CC(=O)N(C)[C@@H](C(C)C)C(=O)O[C@@H]2C)c(N)c1=O` [Actinomycin D] (I: T[dV]P[Sar][NMeV] / II: T[dV]P[Sar][NMeV]; ester I:1-I:C, II:1-II:C; linker I:N-II:N via Actinocin(9to1)), the IC (80-90) under setting [3] is 0.0012 µM.

On to `O=C1C(=O)N(Cc2ccc(Cl)c(Cl)c2)c2ccccc21` [Apoptosis Activator 2], for which, under setting [1], the “Concentration used (LD80-90)” value amounted to 1.9 µM.

Take `COc1c(C)cnc(Cn2cnc3c(Cl)nc(N)nc32)c1C` [BIIB021]: under setting [2], the IC (80-90) amounted to 0.79 µM.

In the case of `Cn1c(CCCC(=O)O)nc2cc(N(CCCl)CCCl)ccc21` [Bendamustine], under setting [4], the IC (80-90) was 110 µM. Under “figure legend 2c”, this compound had an LD80-90 of 110 µM.

For the compound `CC(C)C[C@H](NC(=O)[C@H](Cc1ccccc1)NC(=O)c1cnccn1)B(O)O` [Bortezomib], the IC (80-90) under setting [2] stood at 0.013 µM.

As for `CS(=O)(=O)OCCCCOS(C)(=O)=O` [Busulfan], the IC (80-90) under setting [2] amounted to 40.6 µM.

Take `C[C@@]12C(=O)OC(=O)[C@]1(C)[C@H]1CC[C@@H]2O1` [Cantharidin]: under setting [4], the IC (80-90) turned out to be 10.7 µM.

`N.N.O=C([O-])C1(C(=O)[O-])CCC1.[Pt+2]` [Carboplatin]: the “Concentration used (LD80-90)” value was found to be 16.4 µM.

For `O=NN(CCCl)C(=O)NCCCl` [Carmustine], under setting [4], the IC (80-90) came out at 26.7 µM.

Consider `COc1cccc2c1C(=O)c1c(O)c3c(c(O)c1C2=O)C[C@@](O)(C(C)=O)C[C@@H]3O[C@H]1C[C@H](N)[C@H](O)[C@H](C)O1` [Daunorubicin], for which the IC (80-90) under setting [4] stood at 0.0225 µM.

For the compound `CC[C@H](C)[C@H](NC(=O)[C@H]([C@@H](C)CC)N(C)C(C)=O)C(=O)N[C@H](C(=O)N[C@@H](CC(C)C)C(=O)[C@@]1(C)CO1)[C@@H](C)O` [Epoxomicin], the IC (80-90) under setting [4] is 0.045 µM.

For the compound `C#Cc1cccc(Nc2ncnc3cc(OCCOC)c(OCCOC)cc23)c1` [Erlotinib], the IC (80-90) under setting [2] stood at 6.5 µM.

As to `COc1cc([C@@H]2c3cc4c(cc3[C@@H](O[C@@H]3O[C@@H]5CO[C@@H](C)O[C@H]5[C@H](O)[C@H]3O)[C@H]3COC(=O)[C@H]23)OCO4)cc(OC)c1O` [Etoposide], the IC (80-90) under setting [2] was found to be 0.034 µM.

For `Nc1nc(F)nc2c1ncn2[C@@H]1O[C@H](CO)[C@@H](O)[C@@H]1O` [Fludarabine], the IC (80-90) under setting [4] worked out at 3.8 µM.

Regarding `CS(=O)(=O)N1CCN(Cc2cc3nc(-c4cccc5[nH]ncc45)nc(N4CCOCC4)c3s2)CC1` [GDC 0941], the IC (80-90) under setting [2] stood at 5.4 µM.

Regarding `COc1cc2ncnc(Nc3ccc(F)c(Cl)c3)c2cc1OCCCN1CCOCC1` [Gefitinib], the IC (80-90) under setting [2] amounted to 12.5 µM.

For `Nc1ccn([C@@H]2O[C@H](CO)[C@@H](O)C2(F)F)c(=O)n1` [Gemcitabine], under setting [2], the IC (80-90) turned out to be 0.1 µM.

Turning to `CN1C(=O)[C@]23CC4=CC=C[C@H](O)[C@H]4N2C(=O)[C@@]1(CO)SS3` [Gliotoxin], the IC (80-90) under setting [4] amounted to 0.3 µM.

For `NC(=O)NO` [Hydroxyurea], the IC (80-90) under setting [2] was determined as 78 µM.

Consider `CCc1c2c(nc3ccc(OC(=O)N4CCC(N5CCCCC5)CC4)cc13)-c1cc3c(c(=O)n1C2)COC(=O)[C@]3(O)CC` [Irinotecan], for which the IC (80-90) under setting [2] was found to be 2.1 µM.

In the case of `N[C@@H](Cc1ccc(N(CCCl)CCCl)cc1)C(=O)O` [Melphalan], the IC (80-90) under setting [4] worked out at 3.9 µM.

Take `CN(Cc1cnc2nc(N)nc(N)c2n1)c1ccc(C(=O)N[C@@H](CCC(=O)O)C(=O)O)cc1` [Methotrexate]: the IC (80-90) under setting [2] amounted to 0.033 µM.

Turning to `CO[C@@]12[C@H](COC(N)=O)C3=C(C(=O)C(C)=C(N)C3=O)N1C[C@@H]1N[C@@H]12` [Mitomycin C], the IC (80-90) under setting [3] stood at 0.09 µM.

With `O=C1c2c(O)ccc(O)c2C(=O)c2c(NCCNCCO)ccc(NCCNCCO)c21` [Mitoxantrone], the IC (80-90) under setting [2] came out at 0.0004 µM.

With `COc1ccc2c(c1OC)C(=O)O[C@@H]2[C@H]1c2c(cc3c(c2OC)OCO3)CCN1C` [Noscapine], under setting [2], the IC (80-90) was 58.1 µM.

As for `CCN(CC)CCCCNc1ncc2cc(-c3cc(OC)cc(OC)c3)c(NC(=O)NC(C)(C)C)nc2n1` [PD 173074], the IC (80-90) under setting [2] was determined as 4.2 µM.

Consider `CC(=O)O[C@H]1C(=O)[C@@]2(C)[C@H]([C@H](OC(=O)c3ccccc3)[C@]3(O)C[C@H](OC(=O)[C@H](O)[C@@H](NC(=O)c4ccccc4)c4ccccc4)C(C)=C1C3(C)C)[C@]1(OC(C)=O)CO[C@@H]1C[C@@H]2O` [Paclitaxel], for which the IC (80-90) under setting [2] came out at 0.008 µM.

As for `CO[C@H]1C[C@@H]2CC[C@@H](C)[C@@](O)(O2)C(=O)C(=O)N2CCCC[C@H]2C(=O)O[C@H]([C@H](C)C[C@@H]2CC[C@@H](O)[C@H](OC)C2)CC(=O)[C@H](C)/C=C(\C)[C@@H](O)[C@@H](OC)C(=O)[C@H](C)C[C@H](C)/C=C/C=C/C=C/1C` [Rapamycin], the IC (80-90) under setting [2] was 15 µM.

As for `CC[C@H](CO)Nc1nc(NCc2ccccc2)c2ncn(C(C)C)c2n1` [Roscovitine], the IC (80-90) under setting [4] is 26.7 µM.

Take `O=C(CCCCCN1C(=O)c2cccc3cccc(c23)C1=O)NO` [Scriptaid]: the IC (80-90) under setting [2] is 0.5 µM.

Turning to `CN(N=O)C(=O)N[C@@H](C=O)[C@@H](O)[C@H](O)[C@H](O)CO` [Streptozocin], the IC (80-90) under setting [2] worked out at 83 µM.

`Cn1nnc2c(C(N)=O)ncn2c1=O` [Temozolomide]: under setting [2], the IC (80-90) came out at 23.2 µM.

In the case of `S=P(N1CC1)(N1CC1)N1CC1` [ThioTEPA], for the setting “Mus musculus, read-out: Concentration used (LD80-90)”, the IC (80-90) turned out to be 2.1 µM.

As to `CCNC(=O)c1noc(-c2cc(Cl)c(O)cc2O)c1-c1ccc(OC)cc1` [VER-50589], the “Concentration used (LD80-90)” value under setting [1] stood at 0.16 µM.

For `CC[C@]1(O)C[C@@H]2CN(CCc3c([nH]c4ccccc34)[C@@](C(=O)OC)(c3cc4c(cc3OC)N(C)[C@H]3[C@@](O)(C(=O)OC)[C@H](OC(C)=O)[C@]5(CC)C=CCN6CC[C@]43[C@@H]65)C2)C1` [Vinblastine], the IC (80-90) under setting [2] came out at 0.0025 µM.

For `CC[C@]1(O)C[C@H]2CN(CCc3c([nH]c4ccccc34)[C@@](C(=O)OC)(c3cc4c(cc3OC)N(C=O)[C@H]3[C@@](O)(C(=O)OC)[C@H](OC(C)=O)[C@]5(CC)C=CCN6CC[C@]43[C@@H]65)C2)C1` [Vincristine], under setting [2], the IC (80-90) was found to be 0.0015 µM.

As for `O=c1ncccn1[C@@H]1O[C@H](CO)[C@@H](O)[C@H]1O` [Zebularine], the IC (80-90) under setting [2] is 30 µM.
